Results from US12655173B2, “Hybrid amide derivatives of amphotericin B” (priority 2020, dated 2026).
Converted amounts (≈) assume the structure as drawn.

What was measured:
A. thermomutatus = experiment: MIC against moulds; assay type: cell-based; conditions: for MIC A. thermomutatus: 6 isolates, AmB (AmBisome)
Solubility in D5W = conditions: solubility in D5W
CEA10 (clinical isolate) = experiment: MIC against azole and echinocandin resistant fungal strains (CLSI); assay type: cell-based, A. funigatus; conditions: read-out: MIC CEA10
Method: This experiment was performed following the standard CLSI protocol.

| SMILES | MIC (A. thermomutatus; Aspergillus thermomutatus, read-out: MIC A. thermomutatus) [µM] | MIC A. thermomutatus (A. thermomutatus) [µM] | Fold of Increase w.r.t. AmB (Solubility in D5W) | MIC (CEA10 (clinical isolate)) [µM] |
| --- | --- | --- | --- | --- |
| C[C@@H]1[C@H](O)[C@@H](C)/C=C/C=C/C=C/C=C/C=C/C=C/C=C/[C@H](OC2O[C@H](C)[C@@H](O)[C@H](N)[C@@H]2O)C[C@@H]2O[C@](O)(C[C@@H](O)C[C@@H](O)[C@H](O)CC[C@@H](O)C[C@@H](O)CC(=O)O[C@H]1C)C[C@H](O)[C@H]2C(=O)O (stereo partly drawn) [AmB, Amphotericin B] | 0.6 (≈ 0.554 µg/mL) |  |  |  |
| CC1C=CC=CC=CC=CC=CC=CC=CC(OC2OC(C)C(O)C(N)C2O)CC2OC(O)(CC(O)CC(O)C(O)CCC(O)CC(O)CC(=O)OC(C)C(C)C1O)CC(O)C2C(=O)NC(CO)CO (stereo not drawn) [Compound 1] |  | 1.45 (≈ 1.45 µg/mL) | >314 |  |
| CC1C=CC=CC=CC=CC=CC=CC=CC(OC2OC(C)C(O)C(N)C2O)CC2OC(O)(CC(O)CC(O)C(O)CCC(O)CC(O)CC(=O)OC(C)C(C)C1O)CC(O)C2C(=O)NC(CO)(CO)CO (stereo not drawn) [Compound 2] |  | 2.1 (≈ 2.16 µg/mL) | 15.9 |  |
| C[C@@H](c1ncncc1F)[C@](O)(Cn1cncn1)c1ccc(F)cc1F [Voriconazole] |  |  |  | 1.43 (≈ 0.5 µg/mL) |
